# Test results as given in EP3046573B1, “AMYLIN ANALOGUES” (Zealand Pharma A/S, priority 2013, dated 2015).
# Where two headings read alike, the source gives them in different places. Numbered stars: 1 amine (or outer) side, 2 acyl side, 3 side chain; on linkers, the order of the positions; unused ones are H or OH. Bridge positions count the residues as written; N and C are the ends. Square brackets hold non-standard residues; d marks the D form. Peptide text beside a SMILES is read from it. * marks the point of attachment. C20 diacid = O=C(O)CCCCCCCCCCCCCCCCCCC(=O)*; γGlu = O=C(O)[C@H](CCC(=O)[*:2])N[*:1]; Hyp = O=C(O)[C@@H]1C[C@@H](O)CN1; NMeI = CC[C@H](C)[C@H](NC)C(=O)O; Sar = CNCC(=O)O
# Assays:
# [1] = Solubility assessment (turbidity absorbance at 325 nm); assay type: physicochemical; details: stock 2 mg/ml diluted 1:1, ambient temperature (typically 25°C), n=1; for Solubility, Acetate buffer pH 4: 100 mM acetate buffer pH 4.0; for Solubility, Acetate buffer pH 5: 100 mM acetate buffer pH 5.0; for Solubility, Histidine buffer pH 6: 100 mM histidine buffer pH 6.0; for Solubility, Histidine buffer pH 7: 100 mM histidine buffer pH 7.0; for Solubility, Phosphate buffer pH 6: 100 mM phosphate buffer pH 6.0; for Solubility, Phosphate buffer pH 7: 100 mM phosphate buffer pH 7.0; for Solubility, Phosphate buffer pH 7.5: 100 mM phosphate buffer pH7.5
# How it was run: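 Peptide stock (2 mg/ml) in water acidified to pH 2.5 with HCl was diluted 1:1 into 100 mM acetate (pH 4.0, 5.0), histidine (pH 6.0, 7.0) or phosphate (pH 6.0, 7.0, 7.5) buffer. A280 and A325 were read at about 25°C, n=1. A325 ≤ 0.02 meant solubility ≥ 1 mg/ml.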
# [2] = molecular target: T1, human calcitonin receptor (hCTR2) (Homo sapiens, UniProt P30988); assay: hCTR2 assay: induction of cAMP (AlphaScreen cAMP Assay kit) in COS7 cells expressing hCTR2; assay type: cell-based
# T1 construct: expressed in transfected cells
# T1 sequence (P30988 25-474): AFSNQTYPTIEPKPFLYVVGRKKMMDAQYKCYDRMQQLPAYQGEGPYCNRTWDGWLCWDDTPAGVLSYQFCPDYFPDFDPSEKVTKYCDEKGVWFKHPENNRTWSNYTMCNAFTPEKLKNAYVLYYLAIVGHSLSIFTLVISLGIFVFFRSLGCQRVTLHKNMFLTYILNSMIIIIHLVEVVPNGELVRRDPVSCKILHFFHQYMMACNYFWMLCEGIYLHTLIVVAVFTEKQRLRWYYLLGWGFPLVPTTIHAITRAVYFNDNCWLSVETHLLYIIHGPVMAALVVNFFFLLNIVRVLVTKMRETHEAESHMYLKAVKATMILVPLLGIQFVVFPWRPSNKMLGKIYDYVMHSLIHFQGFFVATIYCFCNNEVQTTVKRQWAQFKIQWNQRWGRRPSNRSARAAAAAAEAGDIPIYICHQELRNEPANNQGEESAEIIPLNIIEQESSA
# How it was run: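 Stable hCTR2 clone in RAMP-naive COS7 cells; peptides titrated in Tyrode buffer (pH 7.4) with 100 µM IBMX, 0.1% casein, 15 min at 37° C. cAMP read by AlphaScreen after lysis; EC50 and efficacy relative to pramlintide from 4PL fit.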
# [3] = cAMP induction in COS7 cells expressing hCTR2, average of a minimum of 3 determinations, read-out: hCTR2 EC50
Structure (SMILES),"Solubility, Acetate buffer pH 4 [1]","Solubility, Acetate buffer pH 5 [1]","Solubility, Histidine buffer pH 6 [1]","Solubility, Histidine buffer pH 7 [1]","Solubility, Phosphate buffer pH 6 [1]","Solubility, Phosphate buffer pH 7 [1]","Solubility, Phosphate buffer pH 7.5 [1]","EC50 [2, 3]",EC50 [2]
"CC[C@H](C)[C@@H](C(=O)N[C@@H](CC(C)C)C(=O)N[C@@H](CO)C(=O)N[C@@H](CO)C(=O)N[C@H](C(=O)N[C@@H](CCC(=O)O)C(=O)N[C@H](C(=O)NCC(=O)N[C@@H](CO)C(=O)N[C@@H](CCC(=O)O)C(=O)N[C@H](C(=O)N1CCC[C@H]1C(N)=O)[C@@H](C)O)C(C)C)[C@@H](C)O)N(C)C(=O)[C@H](C)NC(=O)CN(C)C(=O)[C@H](Cc1ccccc1)NC(=O)[C@H](CO)NC(=O)[C@H](CO)NC(=O)[C@H](CCCNC(=N)N)NC(=O)[C@H](Cc1c[nH]cn1)NC(=O)[C@H](CC(C)C)NC(=O)[C@H](Cc1ccccc1)NC(=O)[C@H](CCC(=O)O)NC(=O)[C@H](C)NC(=O)[C@H](CC(C)C)NC(=O)[C@H](CCCNC(=N)N)NC(=O)[C@H](CCC(=O)O)NC(=O)[C@@H](NC(=O)[C@H](C)NC(=O)[C@@H]1CSSC[C@H](NC(=O)[C@H](CCCNC(=N)N)NC(=O)CC[C@H](NC(=O)CCCCCCCCCCCCCCCCCCC(=O)O)C(=O)O)C(=O)NCC(=O)N[C@@H]([C@@H](C)O)C(=O)N[C@@H](C)C(=O)N[C@@H]([C@@H](C)O)C(=O)N1)[C@@H](C)O [Compound 162, [19CD]-isoGlu-RC()GTATC()ATERLAEFLHRSSF-Gly(Me)-A-Ile(Me)-LSSTEVGSETP-NH2] ({C20 diacid-γGlu}-RCGTATCATERLAEFLHRSSF[Sar]A[NMeI]LSSTEVGSETP-NH2; disulfide 2-7)",SS (SS indicates solubility ≥ 1mg/ml),SS (SS indicates solubility ≥ 1mg/ml),SS (SS indicates solubility ≥ 1mg/ml),SS (SS indicates solubility ≥ 1mg/ml),SS (SS indicates solubility ≥ 1mg/ml),SS (SS indicates solubility ≥ 1mg/ml),SS (SS indicates solubility ≥ 1mg/ml),0.049 nM,
"CC[C@H](C)[C@@H](C(=O)N[C@@H](CC(C)C)C(=O)N[C@@H](CO)C(=O)N[C@@H](CO)C(=O)N[C@H](C(=O)N[C@@H](CCC(=O)O)C(=O)N[C@H](C(=O)NCC(=O)N[C@@H](CO)C(=O)N[C@@H](CCC(=O)O)C(=O)N[C@H](C(=O)N1C[C@H](O)C[C@H]1C(N)=O)[C@@H](C)O)C(C)C)[C@@H](C)O)N(C)C(=O)[C@H](C)NC(=O)CN(C)C(=O)[C@H](Cc1ccccc1)NC(=O)[C@H](CO)NC(=O)[C@H](CO)NC(=O)[C@H](CCCNC(=N)N)NC(=O)[C@H](Cc1c[nH]cn1)NC(=O)[C@H](CC(C)C)NC(=O)[C@H](Cc1ccccc1)NC(=O)[C@H](CCC(=O)O)NC(=O)[C@H](C)NC(=O)[C@H](CC(C)C)NC(=O)[C@H](CCCNC(=N)N)NC(=O)[C@H](CCC(=O)O)NC(=O)[C@@H](NC(=O)[C@H](C)NC(=O)[C@@H]1CSSC[C@H](NC(=O)[C@H](CCCNC(=N)N)NC(=O)CC[C@H](NC(=O)CCCCCCCCCCCCCCCCCCC(=O)O)C(=O)O)C(=O)NCC(=O)N[C@@H]([C@@H](C)O)C(=O)N[C@@H](C)C(=O)N[C@@H]([C@@H](C)O)C(=O)N1)[C@@H](C)O [Compound 166, [19CD]-isoGlu-RC()GTATC()ATERLAEFLHRSSF-Gly(Me)-A-Ile(Me)-LSSTEVGSET-Hyp-NH2] ({C20 diacid-γGlu}-RCGTATCATERLAEFLHRSSF[Sar]A[NMeI]LSSTEVGSET[Hyp]-NH2; disulfide 2-7)",SS (SS indicates solubility ≥ 1mg/ml),SS (SS indicates solubility ≥ 1mg/ml),SS (SS indicates solubility ≥ 1mg/ml),SS (SS indicates solubility ≥ 1mg/ml),SS (SS indicates solubility ≥ 1mg/ml),SS (SS indicates solubility ≥ 1mg/ml),SS (SS indicates solubility ≥ 1mg/ml),0.074 nM,
"CC[C@H](C)[C@@H](C(=O)N[C@@H](CC(C)C)C(=O)N[C@@H](CO)C(=O)N[C@@H](CO)C(=O)N[C@H](C(=O)N[C@@H](CC(=O)O)C(=O)N[C@H](C(=O)NCC(=O)N[C@@H](CO)C(=O)N[C@@H](CC(=O)O)C(=O)N[C@H](C(=O)N1CCC[C@H]1C(N)=O)[C@@H](C)O)C(C)C)[C@@H](C)O)N(C)C(=O)[C@H](C)NC(=O)CN(C)C(=O)[C@H](Cc1ccccc1)NC(=O)[C@H](CO)NC(=O)[C@H](CO)NC(=O)[C@H](CCCNC(=N)N)NC(=O)[C@H](Cc1c[nH]cn1)NC(=O)[C@H](CC(C)C)NC(=O)[C@H](Cc1ccccc1)NC(=O)[C@H](CCC(=O)O)NC(=O)[C@H](C)NC(=O)[C@H](CC(C)C)NC(=O)[C@H](CCCNC(=N)N)NC(=O)[C@H](CC(=O)O)NC(=O)[C@@H](NC(=O)[C@H](C)NC(=O)[C@@H]1CSSC[C@H](NC(=O)[C@H](CCCNC(=N)N)NC(=O)CC[C@H](NC(=O)CCCCCCCCCCCCCCCCCCC(=O)O)C(=O)O)C(=O)N2CCC[C@H]2C(=O)N[C@@H]([C@@H](C)O)C(=O)N[C@@H](C)C(=O)N[C@@H]([C@@H](C)O)C(=O)N1)[C@@H](C)O [Compound 172, [19CD]-isoGlu-RC()PTATC()ATDRLAEFLHRSSF-Gly(Me)-A-Ile(Me)-LSSTDVGSDTP-NH2] ({C20 diacid-γGlu}-RCPTATCATDRLAEFLHRSSF[Sar]A[NMeI]LSSTDVGSDTP-NH2; disulfide 2-7)",SS (SS indicates solubility ≥ 1mg/ml),SS (SS indicates solubility ≥ 1mg/ml),SS (SS indicates solubility ≥ 1mg/ml),SS (SS indicates solubility ≥ 1mg/ml),SS (SS indicates solubility ≥ 1mg/ml),SS (SS indicates solubility ≥ 1mg/ml),SS (SS indicates solubility ≥ 1mg/ml),0.045 nM,
"CC[C@H](C)[C@@H](C(=O)N[C@@H](CC(C)C)C(=O)N[C@@H](CO)C(=O)N[C@@H](CO)C(=O)N[C@H](C(=O)N[C@@H](CC(N)=O)C(=O)N[C@H](C(=O)NCC(=O)N[C@@H](CO)C(=O)N[C@@H](CC(N)=O)C(=O)N[C@H](C(=O)N1CCC[C@H]1C(N)=O)[C@@H](C)O)C(C)C)[C@@H](C)O)N(C)C(=O)[C@H](C)NC(=O)CN(C)C(=O)[C@H](Cc1ccccc1)NC(=O)[C@H](CC(N)=O)NC(=O)[C@H](CC(N)=O)NC(=O)[C@H](CO)NC(=O)[C@H](CO)NC(=O)[C@H](CCCNC(=N)N)NC(=O)[C@H](Cc1c[nH]cn1)NC(=O)[C@H](CC(C)C)NC(=O)[C@H](Cc1ccccc1)NC(=O)[C@H](CCC(=O)O)NC(=O)[C@H](C)NC(=O)[C@H](CC(C)C)NC(=O)[C@H](CCCNC(=N)N)NC(=O)[C@H](CCC(N)=O)NC(=O)[C@@H](NC(=O)[C@H](C)NC(=O)[C@@H]1CSSC[C@H](NC(=O)[C@H](Cc2c[nH]c3ccccc23)NC(=O)[C@H](CCCNC(=N)N)NC(=O)CC[C@H](NC(=O)CCCCCCCCCCCCCCCCCCC(=O)O)C(=O)O)C(=O)N[C@@H](CC(N)=O)C(=O)N[C@@H]([C@@H](C)O)C(=O)N[C@@H](C)C(=O)N[C@@H]([C@@H](C)O)C(=O)N1)[C@@H](C)O [Compound 174, [19CD]-isoGlu-RWC()NTATC()ATQRLAEFLHRSSNNF-Gly(Me)-A-Ile(Me)-LSSTNVGSNTP-NH2] ({C20 diacid-γGlu}-RWCNTATCATQRLAEFLHRSSNNF[Sar]A[NMeI]LSSTNVGSNTP-NH2; disulfide 3-8)",SS (SS indicates solubility ≥ 1mg/ml),SS (SS indicates solubility ≥ 1mg/ml),SS (SS indicates solubility ≥ 1mg/ml),SS (SS indicates solubility ≥ 1mg/ml),SS (SS indicates solubility ≥ 1mg/ml),SS (SS indicates solubility ≥ 1mg/ml),II (II indicates solubility ≤ 1 mg/ml),,0.18 nM
